Test results reported in US7390783B2, “Charged phospholipid compositions and methods for their use” (Ottawa Heart Institute Research Corporation, priority 2000, dated 2008).

Key:
[1] = test system: faecal cholesterol output; test: Faecal cholesterol excretion after PI or PC injection; type: in vivo, rabbit
Experimental: Rabbits are injected with 40 μmol PI or PC vesicles containing 400 μCi […]. Animals are sacrificed at 30 min, and bile is aspirated from the gall bladder. In addition the livers are harvested, homogenized and tissue radioactivity determined. Sterol excretion in the faeces is measured similarly except that faecal cholesterol levels are measured over a time period of 96 hours. Referring now to FIG. 7, there is graphically depicted the effect of PI injection associated with sterol excretion. […] PC injection into a rabbit had no effect on cholesterol excretion, while PI injection enhanced faecal cholesterol output by about 300% at 2 days post injection. The increase in cholesterol output returned to normal by about day 4.

[2] = test system: cholesterol associated with HDL, LDL and VLDL; test: Incubation of plasma with PI: lipoprotein cholesterol levels; type: biochemical, human; conditions: added to blood plasma of fasted normolipidemic subject
Experimental: Referring now to FIG. 2, there is graphically depicted the effect of incubations with PI on the amount of cholesterol associated with HDL (high density lipoprotein), LDL (low density lipoprotein) and VLDL (very low density lipoproteins) following isolation of lipoproteins from plasma of fasted normolipidemic subjects. […] This appears due to the electrostatic effects, that increased lipoprotein PI concentrations have on cholesteryl ester transfer protein. Previous work has shown that this protein controls interlipoprotein cholesterol transfers and is affected by lipoprotein charge (Lagrost 1997).

[3] = test system: VLDL, LDL and HDL in human plasma; test: Lipoprotein charge in human plasma incubated with PI or DOTAP vesicles; type: biochemical; conditions: 24 h at 4° C.; for Lipoprotein Surface Charge LDL: no lipid 2.5; for Lipoprotein Surface Charge VLDL: no lipid 5.5; for Lipoprotein Surface Charge HDL: no lipid 11.8
Experimental: Different concentrations as shown below of negatively charged phospholipid (PI) or positively charged phospholipid (DOTAP) were added to human plasma and the surface charge on the lipoproteins was determined. The human plasma was incubated with PI or dioleoyl trimethylammonium-propane (DOTAP) vesicles for 24 h at 4° C. and then electrophoresed on 0.5% agarose. Lipoprotein charge was calculated from electrokinetic analyses.

[4] = test system: HEPG2 cells; test: Cellular cholesterol uptake from PI-enriched plasma or lipoproteins; type: cell-based
From the text: Almost complete inhibition of the enzyme that produces CE parallelled major increases in the amount of this lipid in VLDL particles. […] Cholesterol transport into VLDL may instead be governed by the charge and structural characteristics of plasma lipoproteins, which may regulate interfacial interactions with specific receptors and cholesterol storage depots on cell surfaces. […] Without wishing to be limited by theory, it is considered that the enhanced uptake of cholesterol from PI-enriched HDL is not facilitated by a scavenger receptor-BI mediated pathway but is associated with a novel protein kinase C dependent uptake pathway. Therefore, it is considered that control of lipoprotein charge by the administration of charged compounds will allow for the manipulation of FC and CE influx/efflux from cell surfaces and the selective control of plasma cholesterol metabolism.

[5] = biological target: T1, lecithin:cholesterol acyltransferase (LCAT) (Oryctolagus cuniculus, UniProt P53761); test: Plasma cholesterol esterification by LCAT after injection of PC or PI; type: in vivo, rabbit
T1 construct: endogenous LCAT activity is reduced to about 18% that of normal; from tissue; host or cells: plasma of PI- or PC-injected rabbits
T1 sequence (P53761 25-440): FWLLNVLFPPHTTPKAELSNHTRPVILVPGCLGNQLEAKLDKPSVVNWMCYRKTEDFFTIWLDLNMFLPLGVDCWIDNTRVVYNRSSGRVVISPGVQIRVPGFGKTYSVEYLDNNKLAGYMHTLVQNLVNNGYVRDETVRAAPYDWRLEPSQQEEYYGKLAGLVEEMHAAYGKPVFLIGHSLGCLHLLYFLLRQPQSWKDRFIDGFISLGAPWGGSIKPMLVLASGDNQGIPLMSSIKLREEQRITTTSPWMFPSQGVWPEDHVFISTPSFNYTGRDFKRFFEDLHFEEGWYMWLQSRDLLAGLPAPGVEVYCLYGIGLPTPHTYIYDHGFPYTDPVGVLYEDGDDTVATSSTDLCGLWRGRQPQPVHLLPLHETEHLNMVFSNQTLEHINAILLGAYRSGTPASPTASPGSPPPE
Experimental: Male New Zealand white rabbits (3.5-4.0 kg) are fasted for 12 hours prior to injection and remain fasted until after data for the final time point is taken. Rabbits have free access to water during this time. A catheter is inserted into the marginal ear vein and blood samples are collected into tubes containing 7.5% (K3) EDTA solution at the desired time points. A pre-injection blood sample is taken and the vesicle solution of either PI (n=4), or PC (n=2) or saline (n=1) is injected into the marginal ear vein. A sample of blood is removed at 10, 30 min, 1, 3, 6 and 24 h after the injection. All blood samples are placed on ice and then centrifuged at 3000 rpm for 15 min at 4° C. to separate the plasma. In order to ensure that lecithin:cholesterol acyl transferase (LCAT) is inhibited in the stored plasma, iodoacetamide (150 mM) is added to plasma samples as taught by Guerin et al. (1994). The effect of PI on LCAT activity is examined using plasma samples that are not treated with iodoacetamide. 400 μL aliquots of plasma for each time point are incubated for 30 min with 10 μCi of [^3H]-FC on filter paper discs (Dobiasova et al., 1991) at 37° C. and the reaction is terminated with the addition of 2 mL ethanol. Reaction products are extracted in hexane and the amount of [^3H] associated with CE and FC is determined by thin layer chromatography. […] However, endogenous LCAT activity is reduced to about 18% that of normal (PC injected control) after about 10 min post injection of PI. Also, PI injection reduces the fractional rate of cholesterol esterification from about 45% to about 8%, of initial values, per hour. […] To investigate the effect of PI on the production and transport of CE in the plasma, the amount of radioactive CE was measured at each time point (data not shown). […] Rather it appears that PI may modify intravascular cholesterol levels by mobilizing a cellular cholesterol pool.

[6] = test system: cytomegalovirus (CMV); test: Clearance of cytomegalovirus from the plasma of a rabbit; type: in vivo; conditions: 36 mg vesicles; blood sample 10 minutes post injection
Experimental: Rabbits were injected with 8×10^10 cytomegalovirus (CMV) particles and then with 36 mg of either uncharged vesicles, phosphatidylcholine (PC), or anionic vesicles, phosphatidylinositol (PI). Blood samples were taken at specific intervals and the amount of virus in the blood samples was determined by immunometric analysis.

CCCCCCCC/C=C\CCCCCCCC(=O)O[C@H](COC(=O)CCCCCCCCCCCCCCC)COP(=O)(O)O[C@@H]1[C@H](O)[C@H](O)[C@@H](O)[C@H](O)[C@H]1O [PI, 1-palmitoyl-2-oleoyl phosphatidylinositol]
faecal cholesterol output enhanced by ([1]; 2 days post injection): about 300%
increase in cholesterol output returned to normal by ([1]; rabbit, in vivo): ~4 days
effect on cholesterol in LDL, VLDL and HDL [2]: reduction of cholesterol in LDL and VLDL and increase in HDL cholesterol levels
Lipoprotein Surface Charge LDL ([3]; 5 mg/ml): 2.9 -mV
Lipoprotein Surface Charge VLDL ([3]; 5 mg/ml): 6.3 -mV
Lipoprotein Surface Charge HDL ([3]; 5 mg/ml): 12.4 -mV
Lipoprotein Surface Charge LDL ([3]; 10 mg/ml): 3.3 -mV
Lipoprotein Surface Charge VLDL ([3]; 10 mg/ml): 6.8 -mV
Lipoprotein Surface Charge HDL ([3]; 10 mg/ml): 12.8 -mV
Lipoprotein Surface Charge LDL ([3]; 50 mg/ml): 3.4 -mV
Lipoprotein Surface Charge VLDL ([3]; 50 mg/ml): 6.9 -mV
Lipoprotein Surface Charge HDL ([3]; 50 mg/ml): 13.2 -mV
Lipoprotein Surface Charge LDL ([3]; 100 mg/ml): 3.6 -mV
Lipoprotein Surface Charge VLDL ([3]; 100 mg/ml): 7.1 -mV
Lipoprotein Surface Charge HDL ([3]; 100 mg/ml): 13.4 -mV
effect on cellular cholesterol uptake, PI enrichment of LDL [4]: does not
effect on cellular cholesterol uptake, PI-enrichment of plasma or HDL [4]: stimulates cellular cholesterol uptake
endogenous LCAT activity, of normal (PC injected control) ([5]; about 10 min post injection): about 18%
LCAT activity returned to, of normal ([5]; after a period of time following vesicle injection): about 75%
effect on LCAT activity / cholesteryl esterification ([5]; after injection of vesicles): almost completely inhibits
less [3H]-CE in plasma than in the control ([5]; initial time points, vs PC injected rabbit): 85%
fractional rate of cholesterol esterification ([5]; of initial values, per hour, reduced from about 45%): about 8%
increased rate of clearance of the CMV injectate relative to PC [6]: 1.7 fold
